ChEMBL document CHEMBL1201862, “PubChem BioAssay data set” (2004)
Calls of active or inactive are those of the source.

Assays:
[1] = system: H4; assay: Luminescence Cell-Based Dose Response HTS to Identify Activators of 5'UTR Stem-Loop Driven Prion Protein mRNA Translation in H4 Neuroglioblastoma Cells. [Related pubchem assays: 1829 (Project Summary), 1814 (Primary HTS)]; assay type: functional; conditions: Homo sapiens
[2] = Luminescence Cell-Based Dose Response HTS to Identify Activators of Luciferase Translation or Activity in H4 […] Cells. [Related pubchem assays: 1829 (Project Summary), 1814 (Primary HTS)]; assay type: functional
[3] = Luminescence Cell-Based Dose Confirmation HTS to Identify Activators of 5'UTR Stem-Loop Driven Alpha-Synuclein mRNA Translation in H4 Neuroglioblastoma Cells. [Related pubchem assays: 1829 (Project Summary), 1814 (Primary HTS)]; assay type: functional
[4] = target: Cytochrome P450 2C19 (Homo sapiens, UniProt P33261); assay: Cytochrome panel assay with activity outcomes. Panel member name: p450-cyp2c19 Compounds with AC50 equal or less than 10 uM are considered active; assay type: functional
[5] = target: Cytochrome P450 2C9 (Homo sapiens, UniProt P11712)
[6] = target: T1, Cytochrome P450 1A2 (Homo sapiens, UniProt P05177);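 note: PubChem cytochrome P450 panel assay, CYP1A2 panel member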
T1 sequence (P05177 whole entry): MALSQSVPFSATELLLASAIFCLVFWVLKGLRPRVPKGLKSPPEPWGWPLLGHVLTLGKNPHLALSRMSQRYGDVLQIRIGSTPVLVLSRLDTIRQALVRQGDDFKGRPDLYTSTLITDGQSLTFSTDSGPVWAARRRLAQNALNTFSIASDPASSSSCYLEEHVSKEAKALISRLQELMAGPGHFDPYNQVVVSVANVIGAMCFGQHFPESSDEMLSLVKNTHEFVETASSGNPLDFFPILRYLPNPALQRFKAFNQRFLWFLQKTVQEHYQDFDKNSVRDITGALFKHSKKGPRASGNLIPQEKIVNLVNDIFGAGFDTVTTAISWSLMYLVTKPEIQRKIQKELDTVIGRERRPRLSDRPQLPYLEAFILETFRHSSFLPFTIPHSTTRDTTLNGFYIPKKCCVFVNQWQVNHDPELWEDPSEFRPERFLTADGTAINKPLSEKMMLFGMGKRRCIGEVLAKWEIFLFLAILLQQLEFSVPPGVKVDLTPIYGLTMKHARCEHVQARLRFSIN

[7] = Luminescence Cell-Based Dose Retest to Confirm Inhibitors of Cancer Stem Cells. [Related pubchem assays (depositor defined):AID2717, AID2721]; assay type: functional; conditions: Homo sapiens
[8] = HEp-2 cell cytotoxicity, dose response, cytotoxicity control for RSV inhibitor project, HTS (AID 2410); assay type: functional; conditions: human respiratory syncytial virus
[9] = cytotoxicity toward NIH3T3 fibroblasts, dose response, counter-screen, cell-based, ATP luminescence, mouse fibroblasts (AID 2010); assay type: functional;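 note: cells exposed to compound for about 90 hours before reading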
[10] = inhibitors of intracellular T. cruzi replication, confirmation, NIH3T3 host cells, beta-gal luminescence (AID 2044); assay type: functional, cell-based;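 note: intracellular parasites grown in NIH/3T3 mouse fibroblasts as host cells; luminescent beta-galactosidase reporter signal from transgenic T. cruzi replicating inside host cells; inhibitors lower the luminescence signal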
[11] = growth suppression of PTEN-null colon cells, dose response, cell-based, HCT116 PTEN knockout (AID 1047); assay type: functional;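 note: HCT116 colon tumor cells with PTEN knocked out; cells exposed to compound for 60 hours before readout; potency for loss of cell viability measured by luminescence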
[12] = growth suppression of beta-catenin-knockout colon cells, dose response, cell-based, HCT116, human colon tumor (AID 1045); assay type: functional;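 note: HCT116 colon tumor cells with beta catenin knocked out; cells exposed to compound for 60 hours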
[13] = Luminescence Cell-Based Dose Response HTS to Identify Inhibitors of 5'UTR Stem-Loop Driven Prion Protein mRNA Translation in H4 Neuroglioblastoma Cells. [Related pubchem assays: 1827 (Project Summary), 1813 (Primary HTS)]; assay type: functional
[14] = inhibitors of SNCA 5'UTR-driven reporter translation, confirmation, H4 neuroglioma cells, luminescence (AID 1988); assay type: functional, cell-based
[15] = inhibitors of firefly luciferase expression or activity, dose response, H4 neuroglioma cells, luminescence (AID 1990); assay type: functional, cell-based

Sequence of Cytochrome P450 2C19 (P33261 whole entry): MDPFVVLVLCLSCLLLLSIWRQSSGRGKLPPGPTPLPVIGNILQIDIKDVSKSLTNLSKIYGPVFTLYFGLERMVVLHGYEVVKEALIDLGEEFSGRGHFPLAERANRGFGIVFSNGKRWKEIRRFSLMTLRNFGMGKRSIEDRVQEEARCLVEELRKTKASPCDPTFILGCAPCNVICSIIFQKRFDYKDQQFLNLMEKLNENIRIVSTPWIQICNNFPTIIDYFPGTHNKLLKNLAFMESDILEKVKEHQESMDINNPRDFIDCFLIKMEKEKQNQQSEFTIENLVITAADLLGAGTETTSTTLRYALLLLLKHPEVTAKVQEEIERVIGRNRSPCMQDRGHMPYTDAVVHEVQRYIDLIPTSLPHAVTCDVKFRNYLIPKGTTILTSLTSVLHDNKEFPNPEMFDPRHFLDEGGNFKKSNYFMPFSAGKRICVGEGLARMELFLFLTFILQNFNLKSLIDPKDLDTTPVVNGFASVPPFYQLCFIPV
Sequence of Cytochrome P450 2C9 (P11712 whole entry): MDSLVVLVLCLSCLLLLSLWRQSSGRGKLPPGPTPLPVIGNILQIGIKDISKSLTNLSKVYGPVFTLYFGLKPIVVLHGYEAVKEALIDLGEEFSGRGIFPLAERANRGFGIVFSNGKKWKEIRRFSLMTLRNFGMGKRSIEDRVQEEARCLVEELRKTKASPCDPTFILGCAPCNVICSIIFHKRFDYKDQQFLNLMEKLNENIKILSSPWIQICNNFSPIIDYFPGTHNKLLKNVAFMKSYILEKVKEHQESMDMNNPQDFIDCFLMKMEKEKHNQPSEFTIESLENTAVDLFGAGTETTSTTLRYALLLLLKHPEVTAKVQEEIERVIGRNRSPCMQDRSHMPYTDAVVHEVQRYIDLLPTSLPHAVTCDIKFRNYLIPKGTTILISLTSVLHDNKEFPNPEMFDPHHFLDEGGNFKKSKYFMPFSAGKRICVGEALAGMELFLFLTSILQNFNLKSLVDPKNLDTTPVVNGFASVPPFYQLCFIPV

Structure (SMILES): O=C(O)c1ccc(Cn2nnc3sc4c(c3c2=O)CCCC4)cc1
- EC50 [1]: 53.1 µM (active)
- EC50 [2]: 13.2 µM (active)
- EC50 [3]: 13.2 µM (active)

Structure (SMILES): COCC(=O)Nc1ccc(-c2cn3cccnc3n2)cc1
- AC50 ([4]; read-out: AC50): 3.98 µM (inconclusive)
- AC50 [5]: 6.31 µM (inconclusive)

Structure (SMILES): Cc1ncc([N+](=O)[O-])n1CCOC(=O)NC(NCc1ccccc1)C(Cl)(Cl)Cl (stereo not given)
- AC50 ([4]; read-out: AC50): 14.1 µM (inconclusive)
- AC50 [6]: 25.1 µM (inconclusive)
- AC50 [5]: 12.6 µM (inconclusive)

Structure (SMILES): Cc1ccc(-n2nnnc2SC(C(=O)c2c[nH]c3ccccc23)c2ccccc2)cc1 (stereo not given)
- AC50 [7]: 2.14 µM (active)

Structure (SMILES): Cc1ccccc1Nc1nc(N)nc(-c2oc3ccccc3c2C)n1
- CC50 [8]: 35.4 µM (active)
- EC50 [9]: > 60 µM (not active)
- EC50 [10]: 3.43 µM (active)

Structure (SMILES): O=C(c1cc(C2CC2)nc2ccc(Br)cc12)N1N=C(C(F)F)CC1(O)C(F)F (stereo not given)
- EC50 [11]: 10.5 µM (active)
- EC50 [12]: 13.9 µM (active)

Structure (SMILES): COc1ccc(CCN2C(=S)N(C)C(=O)C2CC(=O)Nc2ccc(OC)cc2)cc1 (stereo not given)
- AC50 [7]: 5.5 µM (active)

Structure (SMILES): Cc1ccc(N2C(=O)C3C4C=CC(CC4)C3C2=O)cc1Br (stereo not given)
- AC50 [7]: 0.678 µM (active)

Structure (SMILES): CC1(C)Cc2c(c(-c3ccco3)nc3sc4c(NCCN5CCOCC5)ncnc4c23)CO1
- EC50 [11]: 8.46 µM (active)
- EC50 [12]: 16.2 µM (active)

Structure (SMILES): Cc1ccc(Nc2nc(N)nc(CN3CCN(Cc4ccc5c(c4)OCO5)CC3)n2)cc1Cl
- EC50 [11]: 18 µM (active)
- EC50 [12]: 15.9 µM (active)

Structure (SMILES): COc1ccccc1-c1nnc(SCC(=O)Nc2ccccc2)o1
- EC50 [1]: 66.2 µM (inconclusive)
- EC50 [2]: 4.37 µM (inconclusive)
- EC50 [3]: 0.382 µM (active)

Structure (SMILES): O=C(NC(=S)N1CCCCC1)c1csc([N+](=O)[O-])c1
- EC50 [1]: > 120 µM (not active)
- EC50 [2]: > 120 µM (not active)
- EC50 [3]: 14.9 µM (active)

Structure (SMILES): O=C(Nc1ccc(Cn2cccn2)cc1)c1ccc(COc2cccc(Br)c2)cc1
- AC50 [7]: < 0.16 µM (active)

Structure (SMILES): O=C(OC(C(=O)Nc1ccc(Cl)cc1C(F)(F)F)c1ccccc1)c1c(Cl)cccc1Cl (stereo not given)
- CC50 [8]: 22.1 µM (active)

Structure (SMILES): Cc1cccc(CNc2ccc(C(CC(N)=O)NC(=O)Cc3cccc4ccccc34)cc2[N+](=O)[O-])c1 (stereo not given)
- AC50 [7]: 5.85 µM (active)

Structure (SMILES): O=C(NC1CCCC1)c1ccc(CSCc2ccccc2F)o1
- EC50 [1]: > 120 µM (not active)
- EC50 [2]: 16.2 µM (active)
- EC50 [3]: > 120 µM (not active)

Structure (SMILES): O=C(NC(=S)Nc1ccc(Oc2ccc(Cl)cc2)cc1)c1ccccc1
- AC50 ([4]; read-out: AC50): 7.08 µM (inconclusive)
- AC50 [5]: 2.82 µM (inconclusive)

Structure (SMILES): Cc1ccccc1S(=O)(=O)N1[C@@H](c2cccc(Cl)c2)C(C(=O)O)=CC[C@H]1c1ccc(Cl)cc1
- CC50 [8]: 15.4 µM (active)

Structure (SMILES): CCN1C(=O)[C@H]2[C@@H](c3ccc(-c4ccc(F)cc4)c(OC)c3)N[C@@](CC(C)C)(C(=O)OC)[C@H]2C1=O
- EC50 [13]: 26.4 µM (active)
- EC50 [14]: 13.9 µM (active)
- EC50 [15]: 17.2 µM (active)

Structure (SMILES): COc1ccc(-c2sc3ccc(N4CCOCC4)cc3c2C#CC(C)(C)O)cc1
- AC50 [7]: 0.873 µM (active)

Structure (SMILES): COc1ccc([N+](=O)[O-])cc1NC(=O)C(C)N(C)Cc1cccc(OC)c1OC (stereo not given)
- CC50 [8]: > 50 µM (active)

Structure (SMILES): C=CCc1c(C)nc2c(OC)cccc2c1Cl
- CC50 [8]: 48.5 µM (active)

Structure (SMILES): CN(CC(=O)Nc1ccc(Cl)c(C(F)(F)F)c1)C(=O)Cc1c[nH]c2ccccc12
- CC50 [8]: 16.7 µM (active)

Structure (SMILES): O=C(CN1C(=O)S/C(=C\C=C\c2ccccc2)C1=O)N1CCOCC1
- EC50 [1]: 17.8 µM (active)
- EC50 [2]: 10.3 µM (active)
- EC50 [3]: 12.2 µM (active)

Structure (SMILES): Cc1cccc(C(=N)NOC(=O)CCCN2C(=O)c3ccccc3C2=O)c1
- AC50 [4]: inconclusive
- AC50 [5]: 3.98 µM (inconclusive)

Structure (SMILES): COc1ccccc1C(=O)Nc1ccc2c(c1)nc(CCNC(=O)c1ccco1)n2C
- EC50 [1]: > 120 µM (not active)
- EC50 [2]: 81.6 µM (active)
- EC50 [3]: 20.2 µM (active)
